From PubChem BioAssay (NCI)
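Following 48 hours of exposure in 96-well plates, responses at five concentrations were used to interpolate endpoints linearly. The concentration for 50% growth inhibition is given as GI50. TGI: total growth inhibition.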

Experiments:
Test in all cases: DTP human tumour cell line panel, 48 h
SK-MEL-28 melanoma = system: SK-MEL-28 melanoma
HT29 colon = system: HT29 colon
NCI-H460 lung = system: NCI-H460 lung
MDA-MB-435 = system: MDA-MB-435
RXF 393 renal = system: RXF 393 renal
CCRF-CEM leukemia = system: CCRF-CEM leukemia
NCI-H23 lung = system: NCI-H23 lung
T-47D breast = system: T-47D breast
SK-OV-3 ovarian = system: SK-OV-3 ovarian
HOP-92 NSCLC = system: HOP-92 NSCLC
COLO 205 colon = system: COLO 205 colon
HCT-15 colon = system: HCT-15 colon
KM12 colon = system: KM12 colon
A549 NSCLC = system: A549 NSCLC
LOX IMVI melanoma = system: LOX IMVI melanoma
A498 renal = system: A498 renal
SK-MEL-5 melanoma = system: SK-MEL-5 melanoma
OVCAR-5 ovarian = system: OVCAR-5 ovarian
RPMI-8226 leukemia = system: RPMI-8226 leukemia
IGROV1 ovarian = system: IGROV1 ovarian
PC-3 prostate = system: PC-3 prostate
SR leukemia = system: SR leukemia
MALME-3M melanoma = system: MALME-3M melanoma
OVCAR-3 ovarian = system: OVCAR-3 ovarian
HL-60(TB) leukemia = system: HL-60(TB) leukemia
SF-295 CNS = system: SF-295 CNS
NCI-H226 lung = system: NCI-H226 lung
UO-31 renal = system: UO-31 renal
SK-MEL-2 melanoma = system: SK-MEL-2 melanoma
SF-268 CNS = system: SF-268 CNS
SNB-19 CNS = system: SNB-19 CNS
HS 578T breast = system: HS 578T breast
TK-10 renal = system: TK-10 renal
ACHN renal = system: ACHN renal
CAKI-1 renal = system: CAKI-1 renal
DU-145 prostate = system: DU-145 prostate
SW-620 colon = system: SW-620 colon
UACC-62 melanoma = system: UACC-62 melanoma
K-562 leukemia = system: K-562 leukemia
SN12C renal = system: SN12C renal
NCI-H522 lung = system: NCI-H522 lung
OVCAR-4 ovarian = system: OVCAR-4 ovarian
MDA-MB-231 breast = system: MDA-MB-231 breast
U251 CNS = system: U251 CNS
SNB-75 CNS = system: SNB-75 CNS
HOP-62 NSCLC = system: HOP-62 NSCLC
HCC-2998 colon = system: HCC-2998 colon
OVCAR-8 ovarian = system: OVCAR-8 ovarian
BT-549 breast = system: BT-549 breast
MCF7 breast = system: MCF7 breast
UACC-257 melanoma = system: UACC-257 melanoma
MOLT-4 leukemia = system: MOLT-4 leukemia
786-0 renal = system: 786-0 renal
NCI/ADR-RES ovarian = system: NCI/ADR-RES ovarian
SF-539 CNS = system: SF-539 CNS

Cc1ccc(C(=O)N(CCCN)C(c2oc3cc(Cl)ccc3c(=O)c2Cc2ccccc2)C(C)C)cc1 (centres undefined)
GI50 (SK-MEL-28 melanoma): 1070 nM | TGI (SK-MEL-28 melanoma): 2500 nM | GI50 (HT29 colon): < 10 nM | TGI (HT29 colon): 437 nM | GI50 (NCI-H460 lung): < 10 nM | TGI (NCI-H460 lung): 1150 nM | GI50 (MDA-MB-435): < 10 nM | TGI (MDA-MB-435): < 10 nM | GI50 (RXF 393 renal): < 10 nM | TGI (RXF 393 renal): 1480 nM | GI50 (CCRF-CEM leukemia): < 10 nM | TGI (CCRF-CEM leukemia): 1700 nM | GI50 (NCI-H23 lung): < 10 nM | TGI (NCI-H23 lung): 1610 nM | GI50 (T-47D breast): < 10 nM | TGI (T-47D breast): 2020 nM | GI50 (SK-OV-3 ovarian): < 10 nM | TGI (SK-OV-3 ovarian): 1570 nM | GI50 (HOP-92 NSCLC): < 10 nM | TGI (HOP-92 NSCLC): 1760 nM | GI50 (COLO 205 colon): < 10 nM | TGI (COLO 205 colon): 595 nM | GI50 (HCT-15 colon): < 10 nM | TGI (HCT-15 colon): 1570 nM | GI50 (KM12 colon): < 10 nM | TGI (KM12 colon): 1470 nM | GI50 (A549 NSCLC): < 10 nM | TGI (A549 NSCLC): 1540 nM | GI50 (LOX IMVI melanoma): < 40.2 nM | TGI (LOX IMVI melanoma): 1980 nM | GI50 (A498 renal): < 10 nM | GI50 (SK-MEL-5 melanoma): < 10 nM | TGI (SK-MEL-5 melanoma): 1680 nM | GI50 (OVCAR-5 ovarian): < 10 nM | TGI (OVCAR-5 ovarian): 1780 nM | GI50 (RPMI-8226 leukemia): < 10 nM | TGI (RPMI-8226 leukemia): 1460 nM | TGI (IGROV1 ovarian): 2720 nM | GI50 (PC-3 prostate): < 10 nM | TGI (PC-3 prostate): 2030 nM | GI50 (SR leukemia): < 10 nM | TGI (SR leukemia): 1860 nM | GI50 (MALME-3M melanoma): 1300 nM | TGI (MALME-3M melanoma): 3090 nM | GI50 (OVCAR-3 ovarian): < 10 nM | TGI (OVCAR-3 ovarian): 1140 nM | GI50 (HL-60(TB) leukemia): < 10 nM | TGI (HL-60(TB) leukemia): 126 nM | GI50 (SF-295 CNS): < 10 nM | TGI (SF-295 CNS): 1480 nM | GI50 (NCI-H226 lung): 1470 nM | TGI (NCI-H226 lung): 3230 nM | GI50 (UO-31 renal): 670 nM | TGI (UO-31 renal): 2460 nM | GI50 (SK-MEL-2 melanoma): < 10 nM | GI50 (SF-268 CNS): < 10 nM | TGI (SF-268 CNS): 1690 nM | GI50 (SNB-19 CNS): 1020 nM | TGI (SNB-19 CNS): 2410 nM | GI50 (HS 578T breast): < 10 nM | TGI (HS 578T breast): 1460 nM | GI50 (TK-10 renal): 1110 nM | TGI (TK-10 renal): 2370 nM | GI50 (ACHN renal): 1070 nM | TGI (ACHN renal): 2390 nM | GI50 (CAKI-1 renal): 49.2 nM | TGI (CAKI-1 renal): 1940 nM | GI50 (DU-145 prostate): < 10 nM | GI50 (SW-620 colon): < 10 nM | TGI (SW-620 colon): 1450 nM | GI50 (UACC-62 melanoma): < 10 nM | TGI (UACC-62 melanoma): 2300 nM | GI50 (K-562 leukemia): < 10 nM | TGI (K-562 leukemia): 1410 nM | GI50 (SN12C renal): < 10 nM | TGI (SN12C renal): 2070 nM | GI50 (NCI-H522 lung): < 10 nM | TGI (NCI-H522 lung): < 10 nM | GI50 (OVCAR-4 ovarian): 899 nM | TGI (OVCAR-4 ovarian): 2470 nM | GI50 (MDA-MB-231 breast): < 10 nM | GI50 (U251 CNS): < 10 nM | TGI (U251 CNS): 1370 nM | GI50 (SNB-75 CNS): < 10 nM | TGI (SNB-75 CNS): 1460 nM | GI50 (HOP-62 NSCLC): < 10 nM | TGI (HOP-62 NSCLC): 1850 nM | GI50 (HCC-2998 colon): < 10 nM | TGI (HCC-2998 colon): 1580 nM | GI50 (OVCAR-8 ovarian): < 10 nM | TGI (OVCAR-8 ovarian): 1790 nM | GI50 (BT-549 breast): < 10 nM | TGI (BT-549 breast): 2030 nM | GI50 (MCF7 breast): < 10 nM | TGI (MCF7 breast): 1390 nM | GI50 (UACC-257 melanoma): < 10 nM | TGI (UACC-257 melanoma): 1970 nM | GI50 (MOLT-4 leukemia): < 10 nM | TGI (MOLT-4 leukemia): 2940 nM | GI50 (786-0 renal): < 10 nM | TGI (786-0 renal): 2110 nM | GI50 (NCI/ADR-RES ovarian): 110 nM | TGI (NCI/ADR-RES ovarian): 1170 nM | GI50 (SF-539 CNS): < 10 nM
